Test results: PubChem BioAssay AID256 (DTP/NCI, 2004)
Where “and” joins values, the source holds several entries; their conditions need not be identical. Equal values may be shown once. Inconclusive results and toxic doses are left out. How the source made its calls: active means survival T/C of 150% or more; inactive means T/C below 125% in these data.

Tested on: CD2F1 mice, L1210 leukemia ip, survival T/C
Test: NCI In Vivo Anticancer Drug Screen. Data for tumor model L1210 Leukemia (intraperitoneal) in CD2F1 (CDF1) mice
Conditions: higher = longer survival
Outline: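 Mice carrying a transplanted tumor received test compound or vehicle alone. The value is the measurement in the treated group divided by that in the vehicle-treated control group.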

[1] = endpoint: mean survival time, dose: 100.0 mg/kg/injection, schedule: Q04DX002 (ip), vehicle: saline with Tween-80
[2] = endpoint: mean survival time, dose: 200.0 mg/kg/injection, schedule: Q04DX002 (ip), vehicle: saline with Tween-80
[3] = endpoint: mean survival time, dose: 400.0 mg/kg/injection, schedule: Q04DX002 (ip), vehicle: saline with Tween-80
[4] = endpoint: mean survival time, dose: 50.0 mg/kg/injection, schedule: Q01DX009 (ip), vehicle: saline with Tween-80
[5] = endpoint: mean survival time, dose: 100.0 mg/kg/injection, schedule: Q01DX009 (ip), vehicle: saline with Tween-80
[6] = endpoint: mean survival time, dose: 100.0 mg/kg/injection, schedule: Q01DX001 (ip), vehicle: Klucel (hydroxypropylcellulose) (HPC)
[7] = endpoint: mean survival time, dose: 400.0 mg/kg/injection, schedule: Q01DX001 (ip), vehicle: Klucel (hydroxypropylcellulose) (HPC)
[8] = endpoint: mean survival time, dose: 100.0 mg/kg/injection, schedule: Q04DX003 (ip), vehicle: saline with Tween-80
[9] = endpoint: mean survival time, dose: 200.0 mg/kg/injection, schedule: Q04DX003 (ip), vehicle: saline with Tween-80
[10] = endpoint: mean survival time, dose: 400.0 mg/kg/injection, schedule: Q04DX003 (ip), vehicle: saline with Tween-80
[11] = endpoint: mean survival time, dose: 75.0 mg/kg/injection, schedule: Q01DX001 (ip), vehicle: other
[12] = endpoint: mean survival time, dose: 150.0 mg/kg/injection, schedule: Q01DX001 (ip), vehicle: other

Measured: T/C

O=C1c2ccccc2C(=O)N1C(=S)N1C(=O)c2ccccc2C1=O
inactive: [1] 96 % of control | [2] 92 % of control | [3] 92 % of control

COc1cc2c3c(c1O)-c1c(ccc(OC)c1OC)CC3N(C)CC2 (configuration not stated)
inactive: endpoint: mean survival time, dose: 100.0 mg/kg/injection, schedule: Q01DX001 (ip), vehicle: saline with Tween-80 92 % of control | endpoint: mean survival time, dose: 200.0 mg/kg/injection, schedule: Q01DX001 (ip), vehicle: saline with Tween-80 105 % of control | endpoint: mean survival time, dose: 400.0 mg/kg/injection, schedule: Q01DX001 (ip), vehicle: saline with Tween-80 97 % of control

Cc1nn(-c2ccccc2)c2c1C(=O)NC2Cc1ccccc1 (configuration not stated)
inactive: endpoint: mean survival time, dose: 50.0 mg/kg/injection, schedule: Q04DX002 (ip), vehicle: saline with Tween-80 103 % of control | [1] 100 % of control | [2] 100 % of control

CCOc1ccc(/C=C/c2ccc3ccccc3[n+]2C)cc1OCC
inactive: endpoint: mean survival time, dose: 25.0 mg/kg/injection, schedule: Q01DX001 (ip), vehicle: saline with Tween-80 102 % of control

Cc1ccc(NC(=O)OCCOc2ccc([N+](=O)[O-])cc2)cc1C
inactive: [4] 108 % of control | [5] 92 % of control | endpoint: mean survival time, dose: 200.0 mg/kg/injection, schedule: Q01DX009 (ip), vehicle: saline with Tween-80 92 % of control

O=C1c2ccccc2C(=O)N1c1ccc(Br)cc1
inactive: [6] 100 % of control | [7] 96 % of control

Cc1c(Cl)cccc1NC(=O)/C=C/c1ccccc1
inactive: [1] 94 % of control | [2] 102 % of control | [3] 94 % of control

c1ccc(C2CO2)cc1 (configuration not stated)
inactive: endpoint: mean survival time, dose: 150.0 mg/kg/injection, schedule: Q04DX003 (ip), vehicle: Klucel (hydroxypropylcellulose) (HPC) 102 % of control | endpoint: mean survival time, dose: 225.0 mg/kg/injection, schedule: Q04DX003 (ip), vehicle: Klucel (hydroxypropylcellulose) (HPC) 102 % of control

Cc1c2cnccc2c(C)c2c1c1ccccc1n2CCCCCCCl
inactive: [8] 91 % of control | [9] 101 % of control

CCc1c(C)c(=O)n(C)c2ccccc12
inactive: [8] 98 % of control | [9] 101 % of control | [10] 102 % of control

Nc1ccc(N=Nc2ccc(S(=O)(=O)O)cc2)cc1
inactive: [8] 97 % of control | [9] 93 % of control | [10] 97 % of control

CC1OC2CC(O)C1(O)C1=C2C(O)=C(C(N)=O)C(=N)C1=O (configuration not stated)
inactive: endpoint: median survival time, dose: 0.31 mg/kg/injection, schedule: Q01DX005 (ip), vehicle: saline 101 % of control | endpoint: median survival time, dose: 0.62 mg/kg/injection, schedule: Q01DX005 (ip), vehicle: saline 101 % of control | endpoint: median survival time, dose: 1.25 mg/kg/injection, schedule: Q01DX005 (ip), vehicle: saline 101 % of control | endpoint: median survival time, dose: 2.5 mg/kg/injection, schedule: Q01DX005 (ip), vehicle: saline 98 % of control | endpoint: median survival time, dose: 5.0 mg/kg/injection, schedule: Q01DX005 (ip), vehicle: saline 108 % of control

Clc1ccc(OCCCCCNCCSSCCNCCCCCOc2ccc(Cl)cn2)nc1
inactive: [11] 101 % of control | [12] 103 % of control | endpoint: mean survival time, dose: 300.0 mg/kg/injection, schedule: Q01DX001 (ip), vehicle: other 106 % of control

O=C(O)CC1OCC=C2C[N+]3([O-])CCC45c6ccccc6NC4C1C2CC53 (configuration not stated)
inactive: [11] 100 % of control | [12] 98 % of control

N=C(N=c1cc(C(=O)NC(=N)NC(=N)Nc2ccc(Cl)cc2)n(C(=N)NC(=N)Nc2ccc(Cl)cc2)c(C(=O)NC(=N)NC(=N)Nc2ccc(Cl)cc2)c1)NC(=N)Nc1ccc(Cl)cc1
inactive: [8] 98 % of control | [9] 100 % of control | [10] 100 % of control

O=[N+]([O-])c1ccc(N/N=C(\c2ccccc2)C2OCCC2c2ccccc2)c([N+](=O)[O-])c1 (configuration not stated)
inactive: [8] 97 % of control | [9] 91 % of control | [10] 94 % of control

CC(=O)Oc1ccc(CC2N=C(c3ccccc3)OC2=O)cc1 (configuration not stated)
inactive: [4] 87 % of control | [5] 91 % of control

Cc1cccc([N+](=O)[O-])c1-c1ccccc1C(=O)O
inactive: [6] 101 % of control | endpoint: mean survival time, dose: 200.0 mg/kg/injection, schedule: Q01DX001 (ip), vehicle: Klucel (hydroxypropylcellulose) (HPC) 101 % of control | [7] 101 % of control

Cc1cc(C)[nH]c(=S)n1.[Pt]
inactive: endpoint: mean survival time, dose: 3.12 mg/kg/injection, schedule: Q04DX003 (ip), vehicle: saline with Tween-80 104 % of control | endpoint: mean survival time, dose: 3.12 mg/kg/injection, schedule: Q04DX003 (ip), vehicle: saline 120 % of control and 108 % of control | endpoint: mean survival time, dose: 6.25 mg/kg/injection, schedule: Q04DX003 (ip), vehicle: saline with Tween-80 102 % of control | endpoint: mean survival time, dose: 6.25 mg/kg/injection, schedule: Q04DX003 (ip), vehicle: saline 117 % of control and 96 % of control | endpoint: mean survival time, dose: 12.5 mg/kg/injection, schedule: Q04DX003 (ip), vehicle: saline with Tween-80 101 % of control | endpoint: mean survival time, dose: 12.5 mg/kg/injection, schedule: Q04DX003 (ip), vehicle: saline 96 % of control | endpoint: mean survival time, dose: 25.0 mg/kg/injection, schedule: Q04DX003 (ip), vehicle: saline with Tween-80 98 % of control | endpoint: mean survival time, dose: 25.0 mg/kg/injection, schedule: Q04DX003 (ip), vehicle: saline 102 % of control | endpoint: mean survival time, dose: 50.0 mg/kg/injection, schedule: Q04DX003 (ip), vehicle: saline with Tween-80 101 % of control | endpoint: mean survival time, dose: 50.0 mg/kg/injection, schedule: Q04DX003 (ip), vehicle: saline 96 % of control and 97 % of control | [8] 101 % of control | endpoint: mean survival time, dose: 100.0 mg/kg/injection, schedule: Q04DX003 (ip), vehicle: saline 120 % of control and 96 % of control | [9] 107 % of control | endpoint: mean survival time, dose: 200.0 mg/kg/injection, schedule: Q04DX003 (ip), vehicle: saline 106 % of control

Cc1c(Cl)ccc(Cl)c1Cl
inactive: endpoint: mean survival time, dose: 100.0 mg/kg/injection, schedule: Q01DX009 (ip), vehicle: saline sonified 105 % of control | endpoint: mean survival time, dose: 100.0 mg/kg/injection, schedule: Q04DX003 (ip), vehicle: saline sonified 104 % of control | endpoint: mean survival time, dose: 200.0 mg/kg/injection, schedule: Q01DX009 (ip), vehicle: saline sonified 100 % of control | endpoint: mean survival time, dose: 200.0 mg/kg/injection, schedule: Q04DX003 (ip), vehicle: saline sonified 101 % of control | endpoint: mean survival time, dose: 400.0 mg/kg/injection, schedule: Q01DX009 (ip), vehicle: saline sonified 102 % of control | endpoint: mean survival time, dose: 400.0 mg/kg/injection, schedule: Q04DX003 (ip), vehicle: saline sonified 106 % of control

Cc1cc(N(CCI)CCI)ccc1N=Nc1ccccc1C(=O)O
inactive: endpoint: mean survival time, dose: 25.0 mg/kg/injection, schedule: Q01DX009 (ip), vehicle: Klucel (hydroxypropylcellulose) (HPC) 122 % of control | endpoint: mean survival time, dose: 50.0 mg/kg/injection, schedule: Q01DX009 (ip), vehicle: Klucel (hydroxypropylcellulose) (HPC) 122 % of control | endpoint: mean survival time, dose: 100.0 mg/kg/injection, schedule: Q01DX009 (ip), vehicle: Klucel (hydroxypropylcellulose) (HPC) 122 % of control

Cc1cccc2c1CCC(OC(=O)c1cc([N+](=O)[O-])cc([N+](=O)[O-])c1)C2 (configuration not stated)
inactive: [5] 92 % of control | endpoint: mean survival time, dose: 100.0 mg/kg/injection, schedule: Q04DX003 (ip), vehicle: acetone 98 % of control | endpoint: mean survival time, dose: 200.0 mg/kg/injection, schedule: Q04DX003 (ip), vehicle: acetone 108 % of control | [9] 89 % of control | endpoint: mean survival time, dose: 400.0 mg/kg/injection, schedule: Q01DX009 (ip), vehicle: saline with Tween-80 97 % of control | endpoint: mean survival time, dose: 400.0 mg/kg/injection, schedule: Q04DX003 (ip), vehicle: acetone 101 % of control

CCOC(=O)/N=[N+](\[O-])c1ccccc1
inactive: endpoint: median survival time, dose: 3.12 mg/kg/injection, schedule: Q01DX009 (ip), vehicle: saline with Tween-80 109 % of control | endpoint: median survival time, dose: 6.25 mg/kg/injection, schedule: Q01DX009 (ip), vehicle: saline with Tween-80 112 % of control | endpoint: median survival time, dose: 12.5 mg/kg/injection, schedule: Q01DX009 (ip), vehicle: saline with Tween-80 105 % of control

CCCCCCCCCCCCCCCCCS(=O)S(=O)O (configuration not stated)
inactive: [8] 98 % of control | [9] 94 % of control | [10] 93 % of control

CCOC(=O)CCCSc1nn(C2OC(COC(=O)c3ccccc3)C(OC(=O)c3ccccc3)C2OC(=O)c2ccccc2)c(=O)[nH]c1=O (configuration not stated)
inactive: endpoint: mean survival time, dose: 12.5 mg/kg/injection, schedule: Q01DX005 (ip), vehicle: distilled water + Tween-80 93 % of control | endpoint: mean survival time, dose: 25.0 mg/kg/injection, schedule: Q01DX005 (ip), vehicle: distilled water + Tween-80 90 % of control | endpoint: mean survival time, dose: 50.0 mg/kg/injection, schedule: Q01DX005 (ip), vehicle: distilled water + Tween-80 93 % of control | endpoint: mean survival time, dose: 100.0 mg/kg/injection, schedule: Q01DX005 (ip), vehicle: distilled water + Tween-80 88 % of control | endpoint: mean survival time, dose: 200.0 mg/kg/injection, schedule: Q01DX005 (ip), vehicle: distilled water + Tween-80 92 % of control

CCCC(=O)N(CC)CC
inactive: endpoint: mean survival time, dose: 50.0 mg/kg/injection, schedule: Q01DX009 (ip), vehicle: saline 94 % of control | endpoint: mean survival time, dose: 100.0 mg/kg/injection, schedule: Q01DX009 (ip), vehicle: saline 98 % of control | endpoint: mean survival time, dose: 200.0 mg/kg/injection, schedule: Q01DX009 (ip), vehicle: saline 98 % of control
